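Where inhibition never reached the appropriate level, the endpoint shown equals the highest concentration tested. Otherwise, values were interpolated linearly from a five-concentration, 48-hour dose response in 96-well plates. At the GI50, growth is halved.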 Calls of active or inactive are those of the source. Rule as the data show it: active = GI50 up to about 1.1 µM and inactive = higher.
What was measured:
Assay in all cases: DTP human tumour cell line panel, 48 h
[1] = system: OVCAR-8
[2] = system: CAKI-1
[3] = system: OVCAR-5
[4] = system: UO-31
[5] = system: HCT-15
[6] = system: CCRF-CEM
[7] = system: Malme-3M
[8] = system: UACC-257
[9] = system: SN12C
[10] = system: SF-295
[11] = system: LOX IMVI
[12] = system: Hs-578T
[13] = system: SK-OV-3
[14] = system: NCI-H522
[15] = system: HCC 2998
[16] = system: MDA-MB-435
[17] = system: K562
[18] = system: SNB-19
[19] = system: RXF 393
[20] = system: U-251

Structure (SMILES) | GI50 [1] | GI50 [2] | GI50 [3] | GI50 [4] | GI50 [5] [µM] | GI50 [6] | GI50 [7] | GI50 [8] | GI50 [9] | GI50 [10] | GI50 [11] | GI50 [12] | GI50 [13] | GI50 [14] | GI50 [15] | GI50 [16] | GI50 [17] | GI50 [18] | GI50 [19] | GI50 [20]
O=C(/C=C1\C[C@H]2C=Nc3ccccc3C(=O)N2C1)NCCCCNC(=O)/C=C1\C[C@H]2C=Nc3ccccc3C(=O)N2C1 | 4.93 µM (inactive) | 2.77 µM (inactive) | 19.2 µM (inactive) | 2.39 µM (inactive) | 8.89 | 1.39 µM (inactive) | 6.81 µM (inactive) | 10.3 µM (inactive) | 5.05 µM (inactive) | 19.5 µM (inactive) | 1.97 µM (inactive) | 29.4 µM (inactive) | 18.3 µM (inactive) | 1.4 µM (inactive) | 18 µM (inactive) | 7.4 µM (inactive) | 3.11 µM (inactive) | 16.6 µM (inactive) | 6.15 µM (inactive) | 3.37 µM (inactive)
Cc1nc2c(O)c3c(c(O)c2nc1C)C1C=CC3CC1 | 7.45 µM (inactive) | 7.57 µM (inactive) | 18.3 µM (inactive) | 12 µM (inactive) | 17.1 | 1.25 µM (inactive) | 12.7 µM (inactive) | 7.24 µM (inactive) | 12.7 µM (inactive) | 29.7 µM (inactive) | 3.53 µM (inactive) | 32.1 µM (inactive) | 22 µM (inactive) | 16 µM (inactive) | > 40.2 µM (inactive) | 3.04 µM (inactive) | 2.09 µM (inactive) | > 64.1 µM (inactive) | 9.23 µM (inactive) | 9.44 µM (inactive)
CCCCCCNC(=O)c1cc(NCc2cc(OC)ccc2OC)ccc1O | 20.7 µM (inactive) | 27.2 µM (inactive) | 51.4 µM (inactive) | 17.7 µM (inactive) | 21.1 | 20.5 µM (inactive) | 22.5 µM (inactive) | 16.9 µM (inactive) | 20.6 µM (inactive) | 12 µM (inactive) | 16.6 µM (inactive) | 28 µM (inactive) | 13.1 µM (inactive) | 14.3 µM (inactive) | 26.6 µM (inactive) | 18.9 µM (inactive) | 14.8 µM (inactive) | 33 µM (inactive) | 18.7 µM (inactive) | 17.9 µM (inactive)
O=C(c1ccc(Cl)c(Cl)c1)N(C(=O)N1CCN(c2ccccc2)CC1)S(=O)(=O)c1ccccc1 | 26.9 µM (inactive) | 55.6 µM (inactive) | 26.9 µM (inactive) | 25.1 µM (inactive) | 24.5 | 19 µM (inactive) | 60 µM (inactive) | > 100 µM (inactive) | 36.1 µM (inactive) | 49.4 µM (inactive) | 19.9 µM (inactive) | 57 µM (inactive) | 27 µM (inactive) | 19 µM (inactive) | > 100 µM (inactive) | 46.7 µM (inactive) | 22.9 µM (inactive) | 36.6 µM (inactive) | > 100 µM (inactive) | 25.5 µM (inactive)
COc1ccc(NC/C=C/C(=C/COC(C)=O)OC(C)=O)cc1 | 4.23 µM (inactive) | 1.89 µM (inactive) | 1.75 µM (inactive) | 12.3 µM (inactive) | 2.41 | 1.77 µM (inactive) | 2.34 µM (inactive) | 2.24 µM (inactive) | 2.12 µM (inactive) | 2.12 µM (inactive) | 2.13 µM (inactive) | 2.12 µM (inactive) | 14.9 µM (inactive) | 2.72 µM (inactive) | 3.03 µM (inactive) | 1.73 µM (inactive) | 1.85 µM (inactive) | 3.27 µM (inactive) | 1.6 µM (inactive) | 2.44 µM (inactive)
CCOP1(=O)CC(C)=C(Cl)C(O)C1 (stereo not given) | > 100 µM (inactive) | > 100 µM (inactive) | > 100 µM (inactive) | > 100 µM (inactive) | > 100 | > 100 µM (inactive) | > 100 µM (inactive) | > 100 µM (inactive) | > 100 µM (inactive) | > 100 µM (inactive) | > 100 µM (inactive) | > 100 µM (inactive) | > 100 µM (inactive) | > 100 µM (inactive) | > 100 µM (inactive) | > 100 µM (inactive) | > 100 µM (inactive) | > 100 µM (inactive) | > 100 µM (inactive) | > 100 µM (inactive)

Reference: ChEMBL document CHEMBL1201862, “PubChem BioAssay data set” (2004)
